Laboratory results reported in ChEMBL document CHEMBL6087437 (J Med Chem, 2025).
Activity calls are given as the source filed them. The rule behind the calls is not given here.

What was measured:
[1] = Stability in mouse plasma assessed as parent compound remaining at 2 uM measured after 60 mins by LC-MS/MS analysis; type: ADME, cell-free; conditions: read-out: Stability
[2] = Clearance in female C57BL/6J mouse at 25 mg/kg, ip; type: ADME, organism-based; conditions: in vivo
CYP2C9 = CYP2C9 (Homo sapiens, UniProt P11712); assay: Inhibition of CYP2C9 in human liver microsomes using tolbutamide as substrate at 10 uM preincubated for 5 mins followed by substrate addition and measured after 20 mins by LC-MS analysis relative to control; type: ADME, Microsome; conditions: probe tolbutamide, time 25 min
Ebolavirus [3] = assay: Antiviral activity against wildtype Ebola virus infected in human HeLa cells incubated for 40 hrs by Hoechst 33342 staining based Cytation-1 automated microscopic analysis; type: functional, organism-based; conditions: Orthoebolavirus
CYP1A2 = target: T1, CYP1A2 (Homo sapiens, UniProt P05177); assay: Inhibition of CYP1A2 in human liver microsomes using phenacetin as substrate at 10 uM preincubated for 5 mins followed by substrate addition and measured after 20 mins by LC-MS analysis relative to control; type: ADME, Microsome; conditions: probe phenacetin, time 25 min
T1 sequence (P05177 whole entry): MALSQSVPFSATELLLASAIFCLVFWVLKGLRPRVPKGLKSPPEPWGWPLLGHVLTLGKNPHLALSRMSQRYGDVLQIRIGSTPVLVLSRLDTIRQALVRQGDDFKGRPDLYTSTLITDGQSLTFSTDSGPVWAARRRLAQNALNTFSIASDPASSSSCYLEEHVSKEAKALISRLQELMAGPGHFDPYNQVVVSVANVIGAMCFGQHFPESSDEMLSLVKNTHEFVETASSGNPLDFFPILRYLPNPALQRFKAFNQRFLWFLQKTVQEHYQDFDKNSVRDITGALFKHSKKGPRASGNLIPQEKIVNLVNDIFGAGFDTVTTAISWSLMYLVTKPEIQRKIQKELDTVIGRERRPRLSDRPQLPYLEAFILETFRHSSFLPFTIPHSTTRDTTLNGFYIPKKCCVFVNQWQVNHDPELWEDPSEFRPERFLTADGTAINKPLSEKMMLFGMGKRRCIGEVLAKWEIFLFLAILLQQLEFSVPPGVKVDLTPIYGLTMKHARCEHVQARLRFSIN

[4] = target: Voltage-gated inwardly rectifying potassium channel KCNH2 (Homo sapiens, UniProt Q12809); assay: Inhibition of human ERG; type: toxicity
[5] = Cmax in female C57BL/6J mouse at 50 mg/kg, ip; type: ADME, organism-based; conditions: in vivo
Ebolavirus [6] = assay: Antiviral activity against pseudotyped Ebola virus expressing glycoprotein infected in human A549 cells assessed as inhibition of viral entry incubated for 48 hrs by Neolite reporter gene assay; type: functional, organism-based; conditions: Orthoebolavirus, A549, 48 h
[7] = AUC in female C57BL/6J mouse at 50 mg/kg, ip; type: ADME, organism-based; conditions: in vivo
[8] = Tmax in female C57BL/6J mouse at 25 mg/kg, ip; type: ADME, organism-based; conditions: in vivo
[9] = Half-life in female C57BL/6J mouse at 50 mg/kg, ip; type: ADME, organism-based; conditions: in vivo
[10] = Tmax in female C57BL/6J mouse at 50 mg/kg, ip; type: ADME, organism-based; conditions: in vivo
[11] = system: Vesicular stomatitis virus; assay: Antiviral activity against pseudotyped vesicular stomatitis virus expressing glycoprotein infected in human A549 cells assessed as inhibition of viral entry incubated for 48 hrs by Neolite reporter gene assay; type: functional, organism-based
Bundibugyo virus = assay: Antiviral activity against pseudotyped Bundibugyo ebolavirus expressing glycoprotein infected in human A549 cells assessed as inhibition of viral entry incubated for 48 hrs by Neolite reporter gene assay; type: functional, organism-based; conditions: A549, 48 h
Zaire ebolavirus = assay: Antiviral activity against pseudotyped Zaire ebolavirus expressing glycoprotein infected in human A549 cells assessed as inhibition of viral entry incubated for 48 hrs by Neolite reporter gene assay; type: functional, organism-based; conditions: A549, 48 h
Reston ebolavirus = assay: Antiviral activity against pseudotyped Reston ebolavirus expressing glycoprotein infected in human A549 cells assessed as inhibition of viral entry incubated for 48 hrs by Neolite reporter gene assay; type: functional, organism-based; conditions: A549, 48 h
Tai Forest ebolavirus = assay: Antiviral activity against pseudotyped Tai Forest ebolavirus expressing glycoprotein infected in human A549 cells assessed as inhibition of viral entry incubated for 48 hrs by Neolite reporter gene assay; type: functional, organism-based; conditions: A549, 48 h
[12] = Stability in human plasma assessed as parent compound remaining at 2 uM measured after 60 mins by LC-MS/MS analysis; type: ADME, cell-free; conditions: read-out: Stability
[13] = Cmax in female C57BL/6J mouse at 25 mg/kg, ip; type: ADME, organism-based; conditions: in vivo
[14] = Metabolic stability in BALB/c mouse liver microsomes assessed as parent compound remaining measured after 60 mins in presence of NADPH by LC-MS/MS analysis; type: ADME, Microsome; conditions: read-out: Stability
[15] = Half-life in female C57BL/6J mouse at 25 mg/kg, ip; type: ADME, organism-based; conditions: in vivo
[16] = AUC in female C57BL/6J mouse at 25 mg/kg, ip; type: ADME, organism-based; conditions: in vivo
[17] = Clearance in female C57BL/6J mouse at 50 mg/kg, ip; type: ADME, organism-based; conditions: in vivo
CYP2D6 = CYP2D6 (Homo sapiens, UniProt P10635); assay: Inhibition of CYP2D6 in human liver microsomes using dextromethorphan as substrate at 10 uM preincubated for 5 mins followed by substrate addition and measured after 20 mins by LC-MS analysis relative to control; type: ADME, Microsome; conditions: probe dextromethorphan, time 25 min
Marburgvirus = assay: Antiviral activity against pseudotyped Marburg virus expressing glycoprotein infected in human A549 cells assessed as inhibition of viral entry incubated for 48 hrs by Neolite reporter gene assay; type: functional, organism-based; conditions: Orthomarburgvirus, A549, 48 h
Influenza A virus = assay: Antiviral activity against pseudotyped Influenza A virus A/Goose/Qinghai/59/05(H5N1) infected in human A549 cells assessed as inhibition of viral entry incubated for 48 hrs by Neolite reporter gene assay; type: functional, organism-based
HeLa = assay: Cytotoxicity against human HeLa cells by Celltiter-Glo luminescent cell viability assay; type: toxicity, cell-based
[18] = Metabolic stability in human liver microsomes assessed as parent compound remaining measured after 60 mins in presence of NADPH by LC-MS/MS analysis; type: ADME, Microsome; conditions: read-out: Stability
CYP3A4 = CYP3A4 (Homo sapiens, UniProt P08684); assay: Inhibition of CYP3A4 in human liver microsomes using midazolam as substrate at 10 uM preincubated for 5 mins followed by substrate addition and measured after 20 mins by LC-MS analysis relative to control; type: ADME, Microsome; conditions: probe midazolam, time 25 min
[19] = Toxicity in female C57BL/6J mouse assessed as adverse effect at 25 to 50 mg/kg, ip; type: organism-based; conditions: in vivo, dose 25-50 mg/kg
Sudan ebolavirus = assay: Antiviral activity against pseudotyped Sudan ebolavirus expressing glycoprotein infected in human A549 cells assessed as inhibition of viral entry incubated for 48 hrs by Neolite reporter gene assay; type: functional, organism-based; conditions: A549, 48 h
[20] = Selectivity index, ratio of CC50 for human A549 cells to EC50 for pseudotyped Ebola virus expressing glycoprotein infected in human A549 cells; type: toxicity, cell-based; conditions: read-out: Ratio CC50/EC50
A549 = assay: Induction of phospholipidosis in human A549 cells at 10 uM incubated for 48 hrs by Hoechst 33342 staining based fluorescence imaging analysis; type: functional, cell-based
[21] = Selectivity index, ratio of CC50 for human HeLa cells to EC50 for antiviral activity against wildtype Ebolavirus infected in human HeLa cells; type: toxicity, cell-based; conditions: read-out: Ratio CC50/EC50
Ebolavirus [22] = assay: Binding affinity to Ebolavirus glycoprotein by SPR analysis

Chain of CYP2D6 (P10635 whole entry): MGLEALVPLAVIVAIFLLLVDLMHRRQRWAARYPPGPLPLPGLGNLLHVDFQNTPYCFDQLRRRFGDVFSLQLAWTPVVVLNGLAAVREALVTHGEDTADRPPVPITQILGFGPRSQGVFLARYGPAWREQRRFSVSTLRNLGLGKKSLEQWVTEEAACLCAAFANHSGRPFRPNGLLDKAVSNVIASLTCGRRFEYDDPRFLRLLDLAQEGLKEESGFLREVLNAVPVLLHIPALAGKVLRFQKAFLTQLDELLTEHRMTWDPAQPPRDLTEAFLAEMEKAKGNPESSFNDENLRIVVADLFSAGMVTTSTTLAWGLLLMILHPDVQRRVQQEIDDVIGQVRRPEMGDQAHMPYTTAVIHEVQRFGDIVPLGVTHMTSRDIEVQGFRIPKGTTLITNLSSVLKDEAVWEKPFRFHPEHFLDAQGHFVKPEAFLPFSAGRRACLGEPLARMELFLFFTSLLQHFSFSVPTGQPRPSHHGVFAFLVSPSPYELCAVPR
Chain of Voltage-gated inwardly rectifying potassium channel KCNH2 (Q12809 whole entry): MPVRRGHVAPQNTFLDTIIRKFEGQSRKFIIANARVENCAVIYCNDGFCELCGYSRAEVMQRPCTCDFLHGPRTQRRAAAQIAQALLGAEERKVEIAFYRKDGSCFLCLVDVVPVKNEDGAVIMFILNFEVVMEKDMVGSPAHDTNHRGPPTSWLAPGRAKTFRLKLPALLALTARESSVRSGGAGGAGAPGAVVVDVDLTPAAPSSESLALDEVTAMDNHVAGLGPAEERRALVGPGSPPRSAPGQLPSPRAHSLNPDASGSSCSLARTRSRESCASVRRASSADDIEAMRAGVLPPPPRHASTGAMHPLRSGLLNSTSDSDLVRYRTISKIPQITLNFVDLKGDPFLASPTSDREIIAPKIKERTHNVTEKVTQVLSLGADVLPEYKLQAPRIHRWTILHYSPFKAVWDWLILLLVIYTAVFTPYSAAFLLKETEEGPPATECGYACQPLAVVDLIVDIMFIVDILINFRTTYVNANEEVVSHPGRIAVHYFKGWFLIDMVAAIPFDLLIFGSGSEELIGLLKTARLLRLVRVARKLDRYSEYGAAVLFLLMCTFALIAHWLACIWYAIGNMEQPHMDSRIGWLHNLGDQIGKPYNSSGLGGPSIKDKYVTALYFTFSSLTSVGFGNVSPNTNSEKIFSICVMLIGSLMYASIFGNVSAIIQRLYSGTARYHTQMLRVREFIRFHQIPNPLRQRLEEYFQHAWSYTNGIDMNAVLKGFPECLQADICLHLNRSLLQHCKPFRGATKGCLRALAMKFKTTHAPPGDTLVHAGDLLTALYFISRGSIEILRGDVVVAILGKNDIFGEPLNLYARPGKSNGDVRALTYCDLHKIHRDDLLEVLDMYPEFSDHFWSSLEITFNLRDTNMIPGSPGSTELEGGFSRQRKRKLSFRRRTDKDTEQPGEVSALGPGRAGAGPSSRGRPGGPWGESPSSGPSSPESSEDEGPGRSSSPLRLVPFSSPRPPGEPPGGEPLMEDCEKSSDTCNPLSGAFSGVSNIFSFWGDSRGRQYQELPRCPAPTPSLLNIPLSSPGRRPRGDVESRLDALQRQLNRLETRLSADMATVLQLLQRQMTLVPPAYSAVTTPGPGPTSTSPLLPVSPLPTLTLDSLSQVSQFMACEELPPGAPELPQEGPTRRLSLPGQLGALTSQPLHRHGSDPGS
Chain of CYP2C9 (P11712 whole entry): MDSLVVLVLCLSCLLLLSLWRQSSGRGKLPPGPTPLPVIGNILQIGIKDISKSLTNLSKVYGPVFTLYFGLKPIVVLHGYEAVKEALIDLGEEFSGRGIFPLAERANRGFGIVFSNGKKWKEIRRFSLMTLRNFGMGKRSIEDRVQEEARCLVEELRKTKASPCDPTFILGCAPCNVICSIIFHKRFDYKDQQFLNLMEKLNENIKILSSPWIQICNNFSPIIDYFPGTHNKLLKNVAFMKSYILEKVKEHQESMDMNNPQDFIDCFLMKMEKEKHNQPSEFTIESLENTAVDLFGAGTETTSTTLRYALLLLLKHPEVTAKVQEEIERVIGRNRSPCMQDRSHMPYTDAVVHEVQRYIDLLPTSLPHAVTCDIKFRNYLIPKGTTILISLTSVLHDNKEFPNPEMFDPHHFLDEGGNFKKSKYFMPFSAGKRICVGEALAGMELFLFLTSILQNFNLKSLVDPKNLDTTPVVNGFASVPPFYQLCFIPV
Chain of CYP3A4 (P08684 whole entry): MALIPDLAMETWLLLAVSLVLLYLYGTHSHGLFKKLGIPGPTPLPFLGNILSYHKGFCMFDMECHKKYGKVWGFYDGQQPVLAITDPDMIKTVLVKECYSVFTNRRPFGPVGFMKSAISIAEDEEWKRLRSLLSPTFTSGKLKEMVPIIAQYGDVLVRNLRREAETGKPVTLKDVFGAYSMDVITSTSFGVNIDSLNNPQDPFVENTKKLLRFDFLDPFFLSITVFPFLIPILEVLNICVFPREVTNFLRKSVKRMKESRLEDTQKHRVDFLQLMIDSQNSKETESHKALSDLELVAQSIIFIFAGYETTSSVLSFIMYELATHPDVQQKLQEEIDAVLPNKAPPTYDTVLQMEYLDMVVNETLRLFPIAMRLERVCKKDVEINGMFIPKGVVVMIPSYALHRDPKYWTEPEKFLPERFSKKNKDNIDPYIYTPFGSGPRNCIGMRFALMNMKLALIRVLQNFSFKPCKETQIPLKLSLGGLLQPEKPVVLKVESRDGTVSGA

Compound | remaining at 1 h, 2 µM [1] [%] | CL/F [2] [mL/min/kg] | inhibition at 20 min, 10 µM (CYP2C9) [%] | EC50 (Ebolavirus [3]) [nM] | inhibition at 20 min, 10 µM (CYP1A2) [%] | IC50 [4] [nM] | Cmax [5] [ng/mL] | EC50 (Ebolavirus [6]) [nM] | AUC [7] [ng·h/mL] | Tmax [8] [h] | half-life [9] [h] | Tmax [10] [h] | inhibition [11] | EC50 (Bundibugyo virus) [nM] | EC50 (Zaire ebolavirus) [nM] | EC50 (Reston ebolavirus) [nM] | EC50 (Tai Forest ebolavirus) [nM] | EC50 (Marburgvirus) [nM] | CC50 (HeLa) [nM] | EC50 (Sudan ebolavirus) [nM] | further results
O=C(Nc1ccc(N2CCC3(CCC3)CC2)c(C(F)(F)F)c1)c1ccc(CN2C[C@@H]3C[C@H]2CO3)nc1 | 90 | 29.2 | 66.4 | 440 | 5.4 | 1500 | 6790 | 120 | 34400 | 0.5 | 4.8 | 1 | Weak_effect | 840 | 120 | 300 | 290 | 680 | 19100 | 2140 | remaining at 1 h, 2 µM [12]: ~100%; Cmax [13]: 2170 ng/mL; remaining at 1 h [14]: 77%; half-life [15]: 3.4 h; AUC [16]: 14300 ng·h/mL; CL/F [17]: 24.3 mL/min/kg; inhibition at 20 min, 10 µM (CYP2D6): 35.2%; inhibition (Influenza A virus): Weak_effect; remaining at 1 h [18]: 60%; inhibition at 20 min, 10 µM (CYP3A4): 4.9%; Activity [19]: Non-toxic
O=C(Nc1ccc(N2CCC3(CCC3)CC2)c(C(F)(F)F)c1)c1ccc(C(=O)N2C[C@@H]3C[C@H]2CO3)nc1 | 97 | 20.2 | 56.6 | 730 | 13.5 | 9400 | 14600 | 160 | 57800 | 1.7 | 1.9 | 0.7 | Weak_effect | 210 | 160 | 210 | 110 | 2240 | 47700 | 890 | selectivity ratio [20]: 258; Activity (A549): inactive; selectivity ratio [21]: 65; remaining at 1 h, 2 µM [12]: ~100%; Cmax [13]: 5370 ng/mL; remaining at 1 h [14]: 84%; half-life [15]: 1.4 h; AUC [16]: 20700 ng·h/mL; CL/F [17]: 14.4 mL/min/kg; inhibition at 20 min, 10 µM (CYP2D6): 24.9%; inhibition (Influenza A virus): Weak_effect; remaining at 1 h [18]: 83.6%
CC1CCN(c2ccc(NC(=O)c3ccc(CN4CCOCC4)cc3)cc2C(F)(F)F)CC1 | – | – | – | 540 | – | – | – | 220 | – | – | – | – | – | 3670 | 220 | 740 | 170 | 5280 | 42700 | 1280 | selectivity ratio [20]: 129; selectivity ratio [21]: 77; Activity (Ebolavirus [22]): Active
